Patent US20240261274A1, “TREATMENT OF MYC-DRIVEN CANCERS WITH GSPT1 DEGRADERS” (MONTE ROSA THERAPEUTICS, INC., priority 2021, published 2024)

Biological target: GSPT1 (Homo sapiens, UniProt P15170+Q96SW2)
Experiment: GSPT1 degradation by Compound 345 in cancer cell lines (western blot)
Format: cell-based
Design: endogenous in cells; host or cells: MM1 S (ATCC CRL-2974)
Experimental: NCI-H1155 and ABC-1 were taken as representative of N-Myc positive NSCLC. NCI-H2023 and NCI-H441 as of N-Myc low representatives. 10A: western blotting analysis performed after 6 (NCI-H1155 and ABC-1) or 24 hr (NCI-H2023 and NCI-H441) posttreatment. […] 10B: corresponding densitometry analyses of GSPT1 normalized to GAPDH. DC50 and Dmax as indicated.
NCI-H1155 and ABC-1 were taken as representative of N-Myc high NSCLC. NCI-H2023 and NCI-H441 as of N-Myc low representatives. Left: densitometry analysis of GSPT1 normalized to GAPDH from western blotting following treatment with Compound 345 (as indicated). Right: 72 hr viability assay following treatment with Compound 345 as assessed by Cell Titer Glo. For both the GSPT1 expression plot and the cell viability plot, two Myc-driven cancer cell lines are represented by upright triangles and diamonds. Two non-Myc-driven cancer cell lines are represented by upside down triangles and circles.
NCI-H1155 and NCI-H2023 were taken as representative of N-Myc high and low NSCLC. 12A: western blot analysis probing for GSPT1 and N-Myc following treatment with Compound 345 (as indicated). Tubulin was used as a loading control. N-Myc could not be detected by western blotting in the NCI-H2023 line. 12B: Single-sample gene set enrichment analysis (ssGSEA) results for a Myc target gene set at 6 hours (left) and 24 hours (right) after treatment. ssGSEA scores were normalized to DMSOs for each cell line and averaged for three replicates. Error bars denote+/−1 s.d. across replicates.
NCI-H1836 and NCI-H1876 were taken as two representatives of L-Myc high SCLC. Western blot analysis probing for GSPT1 and L-Myc following treatment with Compound 345 as indicated. GAPDH was used as a loading control.
FIGS. 16A, 16B and 16C: Activity of Compound 345 in the c-Myc high multiple myeloma MM1S cell line. […] GAPDH was used as a loading control. […] Lenalidomide was used as a benchmark. 16C: Antiproliferative activity of Compound 345 (as indicated) following treatment with Compound 345 for 72 hr as assessed by Cell Titer Glo assay.
(§1) FIGS. 18A, 18B and 18C: Activity of Compound 345 in the c-Myc high WSU-DLCL2 lymphoma cell line. […] GAPDH was used as a loading control. 18B: Antiproliferative activity of Compound 345 (as indicated) following treatment with Compound 345 for 72 hr as assessed by Cell Titer Glo assay. […] Mice were dosed daily PO with vehicle or Compound 345 at 3, 10 mg/kg (as indicated). Tumor volumes were measured twice weekly. X-axis represents the number of days for treatment duration; y-axis represents mean tumor volume (in mm^3)±SEM. CHOP was used as a positive control for this model. Drug-free vehicle is represented by black circles; CHOP combination represented by light squares; Compound 345 3 mg/kg represented by triangles; Compound 345 10 mg/kg represented by dark squares.
as §1, with “19A, 19B,” for “18A, 18B”, “19C:” for “18C:”, “DOHH-2” for “WSU-DLCL2”, “19B:” for “18B:”, “model.” for “model. Drug-free vehicle is represented by black circles; CHOP combination represented by light squares; Compound 345 3 mg/kg represented by triangles; Compound 345 10 mg/kg represented by dark squares.”
Western blot analysis performed 24 hr post treatment initiation. GAPDH was used as a loading control. GSPT1 DC50 and Dmax as indicated.

GSPT1, sequence (P15170 whole entry): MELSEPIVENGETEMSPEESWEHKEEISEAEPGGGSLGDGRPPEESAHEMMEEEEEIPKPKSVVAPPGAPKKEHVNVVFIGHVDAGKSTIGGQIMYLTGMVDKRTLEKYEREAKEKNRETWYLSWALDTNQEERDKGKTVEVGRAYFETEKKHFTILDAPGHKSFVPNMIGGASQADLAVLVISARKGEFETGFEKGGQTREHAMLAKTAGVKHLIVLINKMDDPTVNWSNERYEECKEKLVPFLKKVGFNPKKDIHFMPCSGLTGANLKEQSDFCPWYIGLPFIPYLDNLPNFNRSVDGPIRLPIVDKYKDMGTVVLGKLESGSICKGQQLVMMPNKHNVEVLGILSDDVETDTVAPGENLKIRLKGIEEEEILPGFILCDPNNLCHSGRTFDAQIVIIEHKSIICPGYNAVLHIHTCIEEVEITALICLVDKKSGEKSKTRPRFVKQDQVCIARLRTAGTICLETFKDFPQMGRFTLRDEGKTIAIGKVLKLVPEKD
GSPT1, sequence (Q96SW2 whole entry): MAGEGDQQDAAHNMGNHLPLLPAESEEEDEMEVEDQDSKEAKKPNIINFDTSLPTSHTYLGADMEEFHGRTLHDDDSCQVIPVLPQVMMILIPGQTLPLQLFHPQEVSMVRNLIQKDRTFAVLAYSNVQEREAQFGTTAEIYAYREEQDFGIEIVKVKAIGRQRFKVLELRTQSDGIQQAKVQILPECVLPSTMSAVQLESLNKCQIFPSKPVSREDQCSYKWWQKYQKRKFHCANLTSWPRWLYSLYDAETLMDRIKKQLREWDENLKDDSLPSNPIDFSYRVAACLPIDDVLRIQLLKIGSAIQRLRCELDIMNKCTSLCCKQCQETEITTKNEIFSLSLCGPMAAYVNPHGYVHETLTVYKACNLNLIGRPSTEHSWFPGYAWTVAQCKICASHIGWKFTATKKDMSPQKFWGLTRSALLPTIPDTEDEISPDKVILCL
GSPT1, sequence (Q16531 whole entry partner): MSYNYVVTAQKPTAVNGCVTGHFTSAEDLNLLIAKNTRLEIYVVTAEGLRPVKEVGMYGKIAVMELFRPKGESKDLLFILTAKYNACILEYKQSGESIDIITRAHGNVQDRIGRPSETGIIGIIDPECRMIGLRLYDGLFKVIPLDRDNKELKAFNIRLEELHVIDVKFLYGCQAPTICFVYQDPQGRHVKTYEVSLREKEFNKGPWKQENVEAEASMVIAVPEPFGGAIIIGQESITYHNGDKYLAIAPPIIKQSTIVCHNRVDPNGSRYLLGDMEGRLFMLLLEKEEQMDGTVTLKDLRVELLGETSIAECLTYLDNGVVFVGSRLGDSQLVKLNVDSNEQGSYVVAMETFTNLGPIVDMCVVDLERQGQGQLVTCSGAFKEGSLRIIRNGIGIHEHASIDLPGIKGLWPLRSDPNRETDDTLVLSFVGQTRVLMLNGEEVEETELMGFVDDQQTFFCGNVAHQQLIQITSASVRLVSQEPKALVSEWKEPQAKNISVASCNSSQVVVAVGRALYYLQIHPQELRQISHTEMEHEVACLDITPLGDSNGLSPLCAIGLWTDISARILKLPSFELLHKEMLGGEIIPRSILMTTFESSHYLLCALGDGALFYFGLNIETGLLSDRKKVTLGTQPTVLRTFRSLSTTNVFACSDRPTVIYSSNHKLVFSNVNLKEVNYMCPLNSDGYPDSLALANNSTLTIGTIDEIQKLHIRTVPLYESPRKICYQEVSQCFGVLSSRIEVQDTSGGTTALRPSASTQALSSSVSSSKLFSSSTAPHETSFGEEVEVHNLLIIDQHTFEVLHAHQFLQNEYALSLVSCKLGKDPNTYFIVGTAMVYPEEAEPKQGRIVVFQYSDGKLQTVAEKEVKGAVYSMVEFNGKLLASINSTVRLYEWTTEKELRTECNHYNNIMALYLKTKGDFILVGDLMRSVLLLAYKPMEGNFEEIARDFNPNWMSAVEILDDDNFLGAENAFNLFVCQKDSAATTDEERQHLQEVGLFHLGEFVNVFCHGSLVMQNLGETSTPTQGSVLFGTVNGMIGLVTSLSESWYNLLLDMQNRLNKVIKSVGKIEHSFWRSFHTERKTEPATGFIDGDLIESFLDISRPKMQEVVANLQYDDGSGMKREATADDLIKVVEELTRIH

SMILES: O=C1CCC(N2Cc3ccc(COC(=O)Nc4cc(OC(F)(F)F)ccc4F)cc3C2=O)C(=O)N1 (stereo not drawn) [Compound 345, (2-(2,6-dioxopiperidin-3-yl)-3-oxoisoindolin-5-yl)methyl(2-fluoro-5-(trifluoromethoxy)phenyl)carbamate]
- GSPT1 level (DOHH-2 lymphoma cell line, 24 hr post treatment): Degradation of GSPT1
- GSPT1 level (MM1S multiple myeloma cell line, 24 hr post treatment): Degradation of GSPT1
- GSPT1 level (NSCLC lines NCI-H1155, ABC-1 (6 hr), NCI-H2023, NCI-H441 (24 hr)): Induced-degradation of GSPT1
- GSPT1 level, timecourse (NSCLC lines NCI-H1155 and NCI-H2023): degradation of GSPT1
- GSPT1 level, timecourse (SCLC lines NCI-H1836 and NCI-H1876 (L-Myc high)): degradation of GSPT1
- GSPT1 level (WSU-DLCL2 lymphoma cell line, 24 hr post treatment): Degradation of GSPT1
